Marks after values point to notes of the source that are not given here.
How the values were obtained:
OneTaq polymerase = assay: PCR-based screen and amplification of DNA containing unnatural base pairs, OneTaq (Example 1); type: biochemical; settings: for Amplification: -^a = no amplification was detected
Procedure: (§1) The triphosphates of the 6 group were prepared from the previously reported nucleosides (Kubelka, T., Slavetinska, L., Eigner, V. and Hocek, M. Synthesis of 2,6-disubstituted pyridin-3-yl C-2′-deoxyribonucleosides through chemoselective transformations of bromo-chloropyridine C-nucleosides. Org. Biomol. Chem., 11, 4702-4718) according to Ludwig, J. and Eckstein, F. Rapid and efficient synthesis of nucleoside 5′-0-(1-thiotriphosphates), 5′-triphosphates and 2′,3′-cyclophosphorothioates using 2-chloro-4H-1,3,2-benzodioxaphosphorin-4-one. J. Org. Chem., 54, 631-635. The purity of all other triphosphates was confirmed by MALDI-TOF and UV-VIS. Taq and OneTaq DNA polymerases were purchased from New England Biolabs (Ipswich, Mass.). A mixture of dNTPs was purchased from Fermentas (Glen Burnie, Md.). SYBR Green I Nucleic Acid Gel Stain (10,000×) was purchased from Life Technologies (Carlsbad, Calif.). The synthesis of the DNA templates, D8 (Malyshev, D. A., Dhami, K., Quach, H. T., Lavergne, T., Ordoukhanian, P., Torkamani, A. and Romesberg, F. E. Efficient and sequence-independent replication of DNA containing a third base pair establishes a functional six-letter genetic alphabet. Proc. Natl. Acad. Sci. USA, 109, 12005-12010), used for screening rounds 1-5, and D6 (Malyshev, D. A., Seo, Y. J., Ordoukhanian, P. and Romesberg, F. E. PCR with an expanded genetic alphabet. J. Am. Chem. Soc., 131, 14620-14621), used for all other amplifications, was described previously. Sanger sequencing was carried out as described previously (Malyshev, D. A., Dhami, K., Quach, H. T., Lavergne, T., Ordoukhanian, P., Torkamani, A. and Romesberg, F. E. Efficient and sequence-independent replication of DNA containing a third base pair establishes a functional six-letter genetic alphabet. Proc. Natl. Acad. Sci. USA, 109, 12005-12010). Raw Sanger sequencing traces were used to determine the percent retention of the unnatural base pairs, which was converted to fidelity per doubling, as described (Malyshev, D. A., Dhami, K., Quach, H. T., Lavergne, T., Ordoukhanian, P., Torkamani, A. and Romesberg, F. E. Efficient and sequence-independent replication of DNA containing a third base pair establishes a functional six-letter genetic alphabet. Proc. Natl. Acad. Sci. USA, 109, 12005-12010; Malyshev, D. A., Seo, Y. J., Ordoukhanian, P. and Romesberg, F. E. PCR with an expanded genetic alphabet. J. Am. Chem. Soc., 131, 14620-14621).
(§2) All PCR amplifications were performed in a CFX Connect Real-Time PCR Detection System (Bio-Rad), in a total volume of 25 μL using the following conditions: 1× OneTaq reaction buffer, 0.5× Sybr Green I, MgSO4 adjusted to 4.0 mM, 0.2 mM of each dNTP, 50 μM of each unnatural triphosphate, […] of Primer1 and Primer2 (See Table 2), and 0.02 U/μl of the DNA polymerase. Other conditions specific for each round of screening are described in Table 3. Amplified products were purified using DNA Clean and Concentrator-5 spin columns from Zymo Research (Irvine, Calif.). After purification, the PCR products were sequenced on a 3730 DNA Analyzer (Applied Biosystems) to determine the retention of the unnatural base pair as described below. Fidelity was characterized from unnatural base pair (UBP) retention as determined by sequencing with Primer1 on a 3730 DNA Analyzer (Applied Biosystems).
(§3) Specific PCR assay conditions. PCR with the most promising UBPs was carried out with the conditions as described in Table 3. PCR products were further purified on […] gels, followed by single band excision and subsequent clean up using the Zymo Research Zymoclean Gel DNA Recovery Kit. After elution with 20 μl of water, the DNA concentration was measured using fluorescent dye binding (Quant-iT dsDNA HS Assay kit, Life Technologies), and purified amplicons were sequenced in triplicate with both Primer1 and Primer2 to determine UBP retention and thus amplification fidelity. […]

Taq polymerase = biological target: T1, Taq polymerase (Thermus aquaticus, UniProt P19821); assay: PCR-based screen and amplification of DNA containing unnatural base pairs, Taq (Example 1); type: biochemical; settings: ^a 100 pg D8 template, 16 cycles, Taq polymerase, 68° C. for 60 s
T1 construct: purchased New England Biolabs (Ipswich, Mass.)
Procedure: as §1, §2, §3

[1] = ^b 10 pg D6 template, 24 cycles, OneTaq polymerase, 68° C. for 10 s
[2] = OneTaq, 16 cycles, 1 min extension

T1 sequence (P19821 whole entry): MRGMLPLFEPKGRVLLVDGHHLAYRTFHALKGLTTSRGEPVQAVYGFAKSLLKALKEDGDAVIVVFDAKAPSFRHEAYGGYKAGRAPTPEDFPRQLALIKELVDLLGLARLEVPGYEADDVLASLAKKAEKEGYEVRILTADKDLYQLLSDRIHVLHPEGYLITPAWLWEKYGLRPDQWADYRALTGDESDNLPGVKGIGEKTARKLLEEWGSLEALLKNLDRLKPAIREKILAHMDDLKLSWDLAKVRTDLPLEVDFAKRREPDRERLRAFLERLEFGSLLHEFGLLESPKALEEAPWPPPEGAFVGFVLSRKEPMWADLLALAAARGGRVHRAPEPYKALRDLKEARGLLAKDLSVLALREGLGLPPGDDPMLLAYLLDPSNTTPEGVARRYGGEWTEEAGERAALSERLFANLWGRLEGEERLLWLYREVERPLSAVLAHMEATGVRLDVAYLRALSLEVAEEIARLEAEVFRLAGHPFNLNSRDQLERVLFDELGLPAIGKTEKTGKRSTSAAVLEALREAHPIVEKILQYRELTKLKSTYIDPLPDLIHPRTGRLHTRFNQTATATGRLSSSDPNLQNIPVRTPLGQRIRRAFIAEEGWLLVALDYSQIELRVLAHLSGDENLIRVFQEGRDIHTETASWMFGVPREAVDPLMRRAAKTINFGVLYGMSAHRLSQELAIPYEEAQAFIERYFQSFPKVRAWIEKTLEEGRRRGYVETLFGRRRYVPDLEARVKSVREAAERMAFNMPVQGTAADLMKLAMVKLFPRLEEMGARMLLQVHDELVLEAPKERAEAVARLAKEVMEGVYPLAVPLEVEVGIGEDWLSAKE

Structure (SMILES) | Retention, % (OneTaq polymerase; [1]) | Fidelity, % (OneTaq polymerase; [2]) | Retention, % (OneTaq polymerase; [2]) | Amplification (OneTaq polymerase; [2]) | other results
COc1cc(I)ccc1[C@H]1C[C@H](O)[C@@H](COP(=O)(O)OP(=O)(O)OP(=O)(O)O)O1.O=P(O)(O)OP(=O)(O)OP(=O)(O)OC[C@H]1O[C@@H](n2ccc3ncccc3c2=S)C[C@@H]1O [SNICS-IMO] | 88^b % | – | – | – | –
COc1cc2ccccc2cc1[C@H]1C[C@H](O)[C@@H](COP(=O)(O)OP(=O)(O)OP(=O)(O)O)O1.O=P(O)(O)OP(=O)(O)OP(=O)(O)OC[C@H]1O[C@@H](n2ccc3ncccc3c2=S)C[C@@H]1O [SNICS-NaM] | – | – | – | – | Retention, % (Taq polymerase): 90^a %
COc1cc(Cl)ccc1[C@H]1C[C@H](O)[C@@H](COP(=O)(O)OP(=O)(O)OP(=O)(O)O)O1.O=P(O)(O)OP(=O)(O)OP(=O)(O)OC[C@H]1O[C@@H](n2ccc3ccsc3c2=S)C[C@@H]1O [TPT3-CIMO] | 90^b % | – | – | – | –
COc1ccc([C@H]2C[C@H](O)[C@@H](COP(=O)(O)OP(=O)(O)OP(=O)(O)O)O2)c(OC)c1.O=P(O)(O)OP(=O)(O)OP(=O)(O)OC[C@H]1O[C@@H](n2ccc3ccsc3c2=S)C[C@@H]1O [TPT3-DMO] | – | 98.23 ± 0.23% | 84.02 ± 1.92% | 864 | –
COc1cc(C)ccc1[C@H]1C[C@H](O)[C@@H](COP(=O)(O)OP(=O)(O)OP(=O)(O)O)O1.O=P(O)(O)OP(=O)(O)OP(=O)(O)OC[C@H]1O[C@@H](n2ccc3ccsc3c2=S)C[C@@H]1O [TPT3-MMO2] | – | 99.06 ± 0.40% | 90.95 ± 3.63% | 1096 | –
CSc1ccc(C2CC(O)C(CO)O2)c(SC)n1.OCC1OC(n2ccc3ccsc3c2=S)CC1O (centres unmarked) [TPT3-TOK576] | – | 98.35 ± 0.14% | 85.20 ± 1.12% | 780 | Retention, % (OneTaq polymerase; OneTaq, 16 cycles, 1 min extension, listed as dTPT3-dTOK576): 85%
Cc1ccc([C@H]2C[C@H](O)[C@@H](COP(=O)(O)OP(=O)(O)OP(=O)(O)O)O2)c(Cl)n1.O=P(O)(O)OP(=O)(O)OP(=O)(O)OC[C@H]1O[C@@H](n2ccc3ccsc3c2=S)C[C@@H]1O [TPT3-TOK580] | – | <85 ^b % | <50 ^b % | 1056 | Retention, % (OneTaq polymerase; OneTaq, 16 cycles, 1 min extension, listed as dTPT3-dTOK580): poorly replicated
Cc1ccc([C@H]2C[C@H](O)[C@@H](COP(=O)(O)OP(=O)(O)OP(=O)(O)O)O2)c(N)n1.O=P(O)(O)OP(=O)(O)OP(=O)(O)OC[C@H]1O[C@@H](n2ccc3ccsc3c2=S)C[C@@H]1O [TPT3-TOK586] | – | <85 ^b % | <50 ^b % | 948 | Retention, % (OneTaq polymerase; OneTaq, 16 cycles, 1 min extension, listed as dTPT3-dTOK586): poorly replicated
CSc1nc(C)ccc1[C@H]1C[C@H](O)[C@@H](COP(=O)(O)OP(=O)(O)OP(=O)(O)O)O1.O=P(O)(O)OP(=O)(O)OP(=O)(O)OC[C@H]1O[C@@H](n2ccc3ccsc3c2=S)C[C@@H]1O [TPT3-TOK588] | – | 94.99 ± 1.13% | 61.98 ± 7.09% | 666 | Retention, % (OneTaq polymerase; OneTaq, 16 cycles, 1 min extension, listed as dTPT3-dTOK588): 62%
COc1cc(N=[N+]=[N-])ccc1[C@H]1C[C@H](O)[C@@H](COP(=O)(O)OP(=O)(O)OP(=O)(O)O)O1.O=P(O)(O)OP(=O)(O)OP(=O)(O)OC[C@H]1O[C@@H](n2ccc3ccsc3c2=S)C[C@@H]1O [TPT3-ZMO] | 86^b % | – | – | – | –

From patent US11634451B2, “Method for the site-specific enzymatic labelling of nucleic acids in vitro by incorporation of unnatural nucleotides” (The Scripps Research Institute, priority 2013, dated 2023)
